In US20250074911A1, “MACROCYCLIC BTK INHIBITORS” (Crossfire Oncology Holding B.V., priority 2021, published 2025):
pIC50, pKd: −log10 of the molar value.

Key:
[1] = tested on: wt-REC-1 mantle cell lymphoma cells; test: Cell proliferation assay wt-REC-1 (ATPlite, 72 hours); assay type: cell-based; conditions: 72 h; read-out: IC50 wt-REC-1
Summary of the method: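 Luminescent viability read over 72 h, start-of-incubation signal recorded separately to separate growth from cell death. Percentage growth referenced to compound-free 0.3% DMSO wells; IC50 from 4-parameter logistic fit.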

BTK T474I = BTK T474I (Homo sapiens (Human), UniProt Q06187, T474I); test: Binding kinetics measurements (Surface Plasmon Resonance) on BTK T474I; conditions: for pKd: binding affinity by Surface Plasmon Resonance (SPR); for Tau (h) BTK T474I (Act): target residence time, SPR
Sequence of BTK T474I (Q06187 whole entry T474I): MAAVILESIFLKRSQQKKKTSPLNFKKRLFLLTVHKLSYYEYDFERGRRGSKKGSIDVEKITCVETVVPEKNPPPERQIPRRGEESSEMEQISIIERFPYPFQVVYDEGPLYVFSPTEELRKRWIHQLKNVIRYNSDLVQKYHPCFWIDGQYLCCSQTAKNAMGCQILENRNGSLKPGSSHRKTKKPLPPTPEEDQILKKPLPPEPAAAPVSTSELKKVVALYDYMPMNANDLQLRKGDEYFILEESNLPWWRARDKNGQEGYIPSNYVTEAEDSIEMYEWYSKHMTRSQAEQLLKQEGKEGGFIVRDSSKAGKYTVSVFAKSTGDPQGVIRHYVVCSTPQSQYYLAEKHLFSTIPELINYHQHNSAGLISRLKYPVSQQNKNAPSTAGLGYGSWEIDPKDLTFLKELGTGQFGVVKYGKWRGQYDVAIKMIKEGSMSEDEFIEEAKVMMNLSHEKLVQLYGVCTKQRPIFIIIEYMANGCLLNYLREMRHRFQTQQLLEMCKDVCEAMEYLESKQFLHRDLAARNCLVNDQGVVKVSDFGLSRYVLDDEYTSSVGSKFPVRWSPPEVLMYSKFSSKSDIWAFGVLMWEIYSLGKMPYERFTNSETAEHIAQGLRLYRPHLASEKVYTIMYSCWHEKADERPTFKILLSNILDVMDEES
Summary of the method: (§1)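 SPR, single cycle kinetics: 5 injections, 3.16-316 nM, 30 μl/min (avoids mass transport limitation), 22° C, 1% DMSO buffer. Protein immobilized at 4° C on streptavidin chip, biocytin block. Blank run first; reference channel and buffer curves subtracted.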

[2] = biological target: full-length wt-BTK enzyme (Homo sapiens (Human), UniProt Q06187); test: Biochemical kinase assay wt-BTK (IMAP)
Sequence of full-length wt-BTK enzyme (Q06187 whole entry): as the sequence (Q06187 whole entry T474I) above, with I474T counted along it
Summary of the method: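 IMAP fluorescence polarization assay: 1.2 nM enzyme pre-incubated 1 h with compound at room temperature, then 50 nM fluorescein-labeled MBP-derived peptide and 4 μM ATP added. Reaction ran 2 h at room temperature in the dark before quenching with IMAP binding solution.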

BTK C481S = BTK C481S (Homo sapiens (Human), UniProt Q06187, C481S); test: Binding kinetics measurements (Surface Plasmon Resonance) on BTK C481S; conditions: for pKd: binding affinity by Surface Plasmon Resonance (SPR); for Tau (h) BTK C418S (Act): target residence time for BTK C481S, SPR
Sequence of BTK C481S (Q06187 whole entry C481S): as the sequence (Q06187 whole entry T474I) above, with I474T, C481S counted along it
Summary of the method: as §1

BTK T474S = BTK T474S (Homo sapiens (Human), UniProt Q06187, T474S); test: Binding kinetics measurements (Surface Plasmon Resonance) on BTK T474S; conditions: for residence time: SPR binding kinetics, BTK T474S, read-out: Tau (h) BTK T474S (Act), target residence time (converted); for pKd: binding affinity by Surface Plasmon Resonance (SPR)
Sequence of BTK T474S (Q06187 whole entry T474S): as the sequence (Q06187 whole entry T474I) above, with I474S counted along it
Summary of the method: as §1

[3] = biological target: full-length BTK C481S enzyme (Homo sapiens (Human), UniProt Q06187, C481S); test: Biochemical kinase assay BTK C481S (IMAP)
Sequence of full-length BTK C481S enzyme (Q06187 whole entry C481S): as the sequence (Q06187 whole entry T474I) above, with I474T, C481S counted along it
Summary of the method: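 Full-length BTK C481S (1.2 nM) was pre-incubated with compound for 1 h at room temperature in the dark, then reacted with fluorescein-labelled MBP-derived peptide (50 nM) and ATP (7 μM) for 2 h. Reactions were quenched with IMAP binding solution, and IC50 values were derived from fluorescence polarization.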

[4] = tested on: wt-TMD8 diffuse large B-cell lymphoma cells; test: Cell proliferation assay wt-TMD8 (ATPlite, 120 hours); assay type: cell-based; conditions: B-cell; wt-TMD8 cells, 120 hours, ATPlite; read-out: IC50 wt-TMD8
Summary of the method: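 wt-TMD8 DLBCL cells, 1600 per well in RPMI-1640 with 10% FBS, rested ≥5 h then exposed to compound for 120 h at 37° C, 5% CO2. Viability read by ATPlite luminescence; percentage growth calculated relative to start-of-incubation signal and untreated 0.3% DMSO maximum growth.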

BTK T316A = BTK T316A (Homo sapiens (Human), UniProt Q06187, T316A); test: Binding kinetics measurements (Surface Plasmon Resonance) on BTK T316A; conditions: for pKd: binding affinity by Surface Plasmon Resonance (SPR); for Tau (h) BTK T316A (Act): target residence time, SPR
Sequence of BTK T316A (Q06187 whole entry T316A): as the sequence (Q06187 whole entry T474I) above, with T316A, I474T counted along it
Summary of the method: as §1

REC-1 T474I cell lines = test: Cell proliferation assay REC-1 BTK T474I knock-in cells (ATPlite, 72 hours); assay type: cell-based; conditions: Homo sapiens, Rec1; 72 hours; read-out: IC50 REC-1 T474I
Summary of the method: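 REC-1 cells carrying CRISPR knock-in mutant BTK, single-cell cloned and sequence-confirmed, were exposed to compound for 72 h and read by ATPlite luminescence. Percentage growth was calculated against the signal at the start of incubation and against untreated 0.3% DMSO wells as maximum growth.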

wt-BTK = wt-BTK (Homo sapiens (Human), UniProt Q06187); test: Binding kinetics measurements (Surface Plasmon Resonance) on wt-BTK; conditions: for pKd: binding affinity by Surface Plasmon Resonance (SPR); for Tau (h) wt-BTK (Act): target residence time, SPR
Sequence of wt-BTK (Q06187 whole entry): as the sequence (Q06187 whole entry T474I) above, with I474T counted along it
Summary of the method: as §1

SMILES	pIC50 [1]	pKd (BTK T474I)	Tau (h) BTK T474I (Act) (BTK T474I) [h]	pIC50 [2]	pKd (BTK C481S)	Tau (h) BTK C418S (Act) (BTK C481S) [h]	residence time (BTK T474S) [h]	pKd (BTK T474S)	pIC50 [3]	pIC50 [4]	pKd (BTK T316A)	Tau (h) BTK T316A (Act) (BTK T316A) [h]	pIC50 (REC-1 T474I cell lines)	pKd (wt-BTK)	Tau (h) wt-BTK (Act) (wt-BTK) [h]
C[C@H]1OC/C=C/c2cnc(N)c3c(-c4ccc(C(=O)Nc5cc(C(F)(F)F)ccn5)cc4)nn(c23)[C@@H]2CCC[C@H](C2)NC1=O [Example 28]	> 7.00	> 8.70	0.73	> 8.30	> 8.30	4.03	3.77	> 8.52	> 8.30	> 7.00	> 8.30	1.43	6.30 to 7.00	> 8.30	4.52
Nc1ncc2c3c1c(-c1ccc(C(=O)Nc4cc(C(F)(F)F)ccn4)cc1)nn3[C@@H]1CCC[C@H](C1)NC(=O)CCNCC/C=C/2 [Example 33]	> 7.00	> 8.70	1.26	> 8.30	> 8.30	9.96	5.78	> 8.52	> 8.30	> 7.00	> 8.30	3.62	> 7.00	> 8.30	3.46
Nc1ncc2c3c1c(-c1ccc(C(=O)Nc4cc(C(F)(F)F)ccn4)cc1)nn3[C@@H]1CCC[C@H](C1)NC(=O)C1CCN1CC/C=C/2 (stereo partly shown) [Example 34]	> 7.00	> 8.70	1.70	> 8.30	> 8.30	9.06	8.1	> 8.52	> 8.30	> 7.00	> 8.30	5.41	> 7.00	> 8.30	6.06
Nc1ncc2c3c1c(-c1ccc(C(=O)Nc4cc(C(F)(F)F)ccn4)cc1)nn3[C@@H]1CCC[C@H](C1)NC(=O)CNC[C@@H](O)/C=C/2 [Example 39]	6.00 to 7.00	> 8.70		> 8.30	> 8.30	2.54	5.96	> 8.52	> 8.30	> 7.00	> 8.30	1.25	5.00 to 6.30	> 8.30	4.22
C[C@@H]1CC(=O)N[C@@H]2CCC[C@H](C2)n2nc(-c3ccc(C(=O)Nc4cc(C(F)(F)F)ccn4)cc3)c3c(N)ncc(c32)/C=C/CN1C [Example 44]	> 7.00	> 8.70	0.87	> 8.30	> 8.30		3.27	> 8.52	> 8.30	> 7.00	> 8.30	2.47	> 7.00	> 8.30	2.32
Nc1ncc2c3c1c(-c1ccc(C(=O)Nc4cc(C(F)(F)F)ccn4)cc1)nn3[C@@H]1CCC[C@H](C1)NC(=O)CCC/C=C/2 [Example 47]	6.00 to 7.00	> 8.70	0.86	> 8.30	> 8.30	4.68	2.76	> 8.52	> 8.30	> 7.00	> 8.30	1.91	6.30 to 7.00	> 8.30	2.66
Nc1ncc2c3c1c(-c1ccc(C(=O)Nc4cc(C(F)(F)F)ccn4)cc1)nn3[C@@H]1CCC[C@H](C1)NC(=O)CCCC/C=C/2 [Example 48]	> 7.00	> 8.70	2.01	> 8.30	> 8.30	4.27	4.18	> 8.52	> 8.30	> 7.00	> 8.30	3.89	> 7.00	> 8.30	7.37
